Test results taken from ChEMBL document CHEMBL3044776, “Microwave-assisted synthesis, pharmacological evaluation, and QSAR studies of 1,3-diaryl-2-propen-1-ones” (Med Chem Res, 2012).

What was measured:
[1] = tested on: Mus musculus; assay: Toxicity in Mus musculus Swiss albino (mouse) assessed as abnormal changes in fur at 500 to 2000 mg/kg, po measured after 14 days; format: organism-based; set-up: dose 500-2000 mg/kg, route oral; conditions: in vivo, 336 h
[2] = tested on: Mus musculus; assay: Toxicity in Mus musculus Swiss albino (mouse) assessed as changes in behavioral pattern at 500 to 2000 mg/kg, po measured after 14 days; format: organism-based; set-up: dose 500-2000 mg/kg, route oral; conditions: in vivo, 336 h
[3] = tested on: Mus musculus; assay: Toxicity in Mus musculus Swiss albino (mouse) assessed as abnormal changes in eyes at 500 to 2000 mg/kg, po measured after 14 days; format: organism-based; set-up: dose 500-2000 mg/kg, route oral; conditions: in vivo, 336 h
[4] = tested on: Mus musculus; assay: Toxicity in Mus musculus Swiss albino (mouse) assessed as mortality at 500 to 2000 mg/kg, po measured after 14 days; format: organism-based; set-up: dose 500-2000 mg/kg, route oral; conditions: in vivo, 336 h
[5] = tested on: Rattus norvegicus; assay: Anti-inflammatory activity in Rattus norvegicus Wistar (rat) assessed as inhibition of carrageenan-induced paw edema at 160 mg/kg, po administered 30 min prior to carrageenan challenge measured at 4 hr relative to control; format: functional
[6] = tested on: Mus musculus; assay: Toxicity in Mus musculus Swiss albino (mouse) assessed as abnormal changes in skin at 500 to 2000 mg/kg, po measured after 14 days; format: organism-based; set-up: dose 500-2000 mg/kg, route oral; conditions: in vivo, 336 h
[7] = tested on: Mus musculus; assay: Analgesic activity in Mus musculus Swiss albino (mouse) assessed as inhibition of acetic acid-induced writhing at 160 mg/kg, po administered 30 min prior challenge measured after 5 min of challenge for next 30 min relative to control; format: functional
[8] = tested on: Rattus norvegicus; assay: Anti-inflammatory activity in Rattus norvegicus Wistar (rat) assessed as inhibition of carrageenan-induced paw edema at 10 mg/kg, po administered 30 min prior to carrageenan challenge measured at 4 hr relative to control; format: functional
[9] = tested on: Mus musculus; assay: Analgesic activity in Mus musculus Swiss albino (mouse) assessed as inhibition of acetic acid-induced writhing at 10 mg/kg, po administered 30 min prior challenge measured after 5 min of challenge for next 30 min relative to control; format: functional

SMILES	Activity [1]	Activity [2]	Activity [3]	Activity [4]	inhibition in vivo at 160 mg/kg [5]	Activity [6]	inhibition in vivo at 160 mg/kg [7]	inhibition in vivo at 10 mg/kg [8]	inhibition in vivo at 10 mg/kg [9]
COc1ccc(C(=O)/C=C/c2ccc(O)c(OC)c2)cc1	Non-toxic	Non-toxic	Non-toxic	Non-toxic	80%	Non-toxic	89.6%	–	–
COc1ccc(C(=O)/C=C/c2ccc(Cl)cc2)cc1	Non-toxic	Non-toxic	Non-toxic	Non-toxic	77.6%	Non-toxic	48.6%	–	–
O=C(/C=C/c1ccccc1Cl)c1ccc(-c2ccccc2)cc1	Non-toxic	Non-toxic	Non-toxic	Non-toxic	61.9%	Non-toxic	85.1%	–	–
O=C(/C=C/c1ccc(O)cc1)c1ccc(-c2ccccc2)cc1	Non-toxic	Non-toxic	Non-toxic	Non-toxic	74.8%	Non-toxic	66.7%	–	–
COc1ccc(C(=O)/C=C/c2ccccc2O)cc1	Non-toxic	Non-toxic	Non-toxic	Non-toxic	76.1%	Non-toxic	50.7%	–	–
O=C(/C=C/c1ccc(Cl)cc1)c1ccc(-c2ccccc2)cc1	Non-toxic	Non-toxic	Non-toxic	Non-toxic	52.9%	Non-toxic	74.3%	–	–
CN(C)c1ccc(/C=C/C(=O)c2ccc(Br)cc2)cc1	Non-toxic	Non-toxic	Non-toxic	Non-toxic	54.5%	Non-toxic	31.9%	–	–
O=C(/C=C/c1ccoc1)c1ccc(-c2ccccc2)cc1	Non-toxic	Non-toxic	Non-toxic	Non-toxic	52.9%	Non-toxic	51.4%	–	–
COc1ccc(/C=C/C(=O)c2ccc(-c3ccccc3)cc2)cc1	Non-toxic	Non-toxic	Non-toxic	Non-toxic	74.8%	Non-toxic	83.3%	–	–
COc1ccc(/C=C/C(=O)c2ccc(Br)cc2)cc1	Non-toxic	Non-toxic	Non-toxic	Non-toxic	67.7%	Non-toxic	70.8%	–	–
O=C(/C=C/c1ccccc1)c1ccc(-c2ccccc2)cc1	Non-toxic	Non-toxic	Non-toxic	Non-toxic	68.4%	Non-toxic	71.5%	–	–
O=C(/C=C/c1ccccc1O)c1ccc(-c2ccccc2)cc1	Non-toxic	Non-toxic	Non-toxic	Non-toxic	80.6%	Non-toxic	75.7%	–	–
COc1ccc2c(c1)c(CC(=O)O)c(C)n2C(=O)c1ccc(Cl)cc1 [INDOMETHACIN]	–	–	–	–	–	–	–	79.3%	–
O=C(/C=C/c1ccc(F)cc1)c1ccc(-c2ccccc2)cc1	Non-toxic	Non-toxic	Non-toxic	Non-toxic	76.8%	Non-toxic	56.5%	–	–
COc1ccc(C(=O)/C=C/c2ccccc2)cc1 [4'-METHOXYCHALCONE]	Non-toxic	Non-toxic	Non-toxic	Non-toxic	69.8%	Non-toxic	25.7%	–	–
COc1ccc(C(=O)/C=C/c2ccc(N(C)C)cc2)cc1	Non-toxic	Non-toxic	Non-toxic	Non-toxic	69.8%	Non-toxic	47.9%	–	–
CN(C)c1ccc(/C=C/C(=O)c2ccc(-c3ccccc3)cc2)cc1	Non-toxic	Non-toxic	Non-toxic	Non-toxic	58.7%	Non-toxic	72.9%	–	–
COc1ccc(/C=C/C(=O)c2ccc(OC)cc2)cc1 [4,4'-DIMETHOXYCHALCONE]	Non-toxic	Non-toxic	Non-toxic	Non-toxic	72.9%	Non-toxic	87.5%	–	–
COc1cc(/C=C/C(=O)c2ccc(-c3ccccc3)cc2)cc(OC)c1	Non-toxic	Non-toxic	Non-toxic	Non-toxic	63.2%	Non-toxic	84.7%	–	–
CC(=O)Oc1ccccc1C(=O)O [ASPIRIN]	–	–	–	–	–	–	–	–	88.9%
O=C(/C=C/c1ccccc1[N+](=O)[O-])c1ccc(-c2ccccc2)cc1	Non-toxic	Non-toxic	Non-toxic	Non-toxic	45.2%	Non-toxic	40.3%	–	–
COc1cc(/C=C/C(=O)c2ccc(-c3ccccc3)cc2)cc(OC)c1OC	Non-toxic	Non-toxic	Non-toxic	Non-toxic	78.7%	Non-toxic	85.4%	–	–
